Here are results for 13 compounds from PMC8950173 (Pharmaceuticals, 2022).

SMILES strings stand for the structures.

Series [1] has as its target human recombinant HDAC3/NcoR2 (Homo sapiens, UniProt O15379). The experiment in a line: Inhibition assay HDAC3 (fluorogenic substrate ZMAL). Format: biochemical. The conditions noted are these: for IC50: 60 min preincubation at 25 °C; for specificity ratio (HDAC1/HDAC3): HDAC1 over HDAC3, from IC50 values. The method, then:
(§1) In vitro inhibitory activities against HDAC1−3 and HDAC6 were measured as previously published with minor modifications. […] Subsequently, 50 µL trypsin solution (0.4 mg/mL trypsin in buffer: 50 mM Tris−HCl, pH = 8.0, 100 mM NaCl) was added, followed by additional 30 min of incubation at 37 °C. […] All compounds were tested at least twice in duplicates.

The target in a further series is T1, human recombinant HDAC1 (Homo sapiens, UniProt Q13547).
T1 construct: purchased BPS Bioscience Inc. 50051
T1 sequence (Q13547 whole entry): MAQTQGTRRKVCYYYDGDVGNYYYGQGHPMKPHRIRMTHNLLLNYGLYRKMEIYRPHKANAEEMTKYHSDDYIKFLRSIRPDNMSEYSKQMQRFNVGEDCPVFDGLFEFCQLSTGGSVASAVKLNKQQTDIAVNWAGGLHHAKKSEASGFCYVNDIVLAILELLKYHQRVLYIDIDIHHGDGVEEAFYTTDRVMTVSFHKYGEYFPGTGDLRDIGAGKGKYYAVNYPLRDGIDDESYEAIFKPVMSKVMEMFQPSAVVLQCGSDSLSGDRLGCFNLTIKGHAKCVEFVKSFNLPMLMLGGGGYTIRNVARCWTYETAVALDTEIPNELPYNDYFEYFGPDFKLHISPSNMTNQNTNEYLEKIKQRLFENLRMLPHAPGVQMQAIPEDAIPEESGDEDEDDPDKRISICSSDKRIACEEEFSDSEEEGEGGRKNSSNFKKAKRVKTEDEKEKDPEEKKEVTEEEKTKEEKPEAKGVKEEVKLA
The experiment in a line: Inhibition assay HDAC1 (fluorogenic substrate ZMAL). It counts as biochemical. The following applies: 60 min preincubation at 25 °C. How it is done: as §1

The next series has as its target T2, human recombinant HDAC6 (Homo sapiens, UniProt Q9UBN7).
T2 construct: purchased BPS Bioscience Inc. 50006
T2 sequence (Q9UBN7 1-1215): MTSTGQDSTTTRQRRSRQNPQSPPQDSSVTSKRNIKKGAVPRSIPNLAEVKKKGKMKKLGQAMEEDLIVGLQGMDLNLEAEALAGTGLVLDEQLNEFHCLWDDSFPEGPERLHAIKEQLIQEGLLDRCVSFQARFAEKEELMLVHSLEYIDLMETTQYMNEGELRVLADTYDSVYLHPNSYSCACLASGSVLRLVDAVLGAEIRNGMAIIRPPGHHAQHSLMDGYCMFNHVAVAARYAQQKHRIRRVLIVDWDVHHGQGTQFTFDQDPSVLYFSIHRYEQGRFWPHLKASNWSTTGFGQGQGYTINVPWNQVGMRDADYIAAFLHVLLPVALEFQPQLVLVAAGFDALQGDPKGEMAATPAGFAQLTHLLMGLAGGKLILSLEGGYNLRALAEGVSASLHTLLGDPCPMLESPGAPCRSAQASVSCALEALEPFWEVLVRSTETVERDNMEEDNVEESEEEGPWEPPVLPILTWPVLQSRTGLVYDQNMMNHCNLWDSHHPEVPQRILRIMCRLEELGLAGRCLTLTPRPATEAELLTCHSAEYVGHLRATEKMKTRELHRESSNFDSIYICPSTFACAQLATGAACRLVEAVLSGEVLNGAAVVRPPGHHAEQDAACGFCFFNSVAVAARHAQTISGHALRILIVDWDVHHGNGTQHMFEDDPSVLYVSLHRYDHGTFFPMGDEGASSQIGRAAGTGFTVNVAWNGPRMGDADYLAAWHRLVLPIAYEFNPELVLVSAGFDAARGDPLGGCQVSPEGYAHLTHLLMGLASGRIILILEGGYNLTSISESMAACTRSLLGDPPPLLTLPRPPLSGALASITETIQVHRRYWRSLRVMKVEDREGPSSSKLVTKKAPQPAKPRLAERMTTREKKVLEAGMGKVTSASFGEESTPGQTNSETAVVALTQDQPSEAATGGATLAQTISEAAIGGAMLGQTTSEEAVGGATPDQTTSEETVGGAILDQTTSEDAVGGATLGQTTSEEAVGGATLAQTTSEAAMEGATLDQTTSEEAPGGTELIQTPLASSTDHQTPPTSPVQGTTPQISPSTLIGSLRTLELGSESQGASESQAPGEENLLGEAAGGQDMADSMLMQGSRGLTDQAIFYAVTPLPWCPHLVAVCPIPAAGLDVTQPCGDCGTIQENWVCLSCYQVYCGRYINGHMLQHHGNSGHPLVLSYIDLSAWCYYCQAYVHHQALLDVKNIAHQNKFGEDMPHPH
The experiment in a line: Inhibition assay HDAC6 (fluorogenic substrate ZMAL). The following applies: for IC50: 15 min preincubation at 25 °C. It counts as biochemical. How it is done: as §1

A further series has as its target T3, human recombinant HDAC2 (Homo sapiens, UniProt Q92769).
T3 construct: purchased BPS Bioscience Inc. 50052
The experiment in a line: Inhibition assay HDAC2 (fluorogenic substrate ZMAL). The following applies: 60 min preincubation at 25 °C. It counts as biochemical. How it is done:
as §1

Series [2] in a line: Solubility observed in cell culture medium. It counts as physicochemical. The following applies: 50 µM in cell culture medium supplemented with 0.5% DMSO.
The next series deals with rat F98 glioma cells. The experiment in a line: MTS assay, cancer cell viability, F98. Format: cell-based. The conditions noted are these: 72 h, mean ± SD, n = 3, read-out: Cell Viability [%] (Vehicle = 100%) F98. How it is done: (§2) F98 cells (obtained from ATCC® Washington, DC, USA) and U251-MG cells (obtained from Drs A. Feldmann and N. Metwasi, Department of Radioimmunology, HZDR, Rossendorf, Germany) were cultivated in Dulbecco’s Modified Eagle Medium (DMEM, Gibco, Invitrogen, Dun Laoghaire, Ireland) supplemented with 10% heat inactivated fetal bovine serum (Gibco, Invitrogen, Dun Laoghaire, Ireland), and 100 U/mL penicillin and 100 µg/mL streptomycin (Gibco, Invitrogen, Dun Laoghaire, Ireland) in a humidified atmosphere in a CO2 incubator (37 °C, 5% CO2).
(§3) Proliferation of F98 and U251-MG cells was determined using a commercially available MTS assay (CellTiter 96® AQueous One Solution Cell Proliferation Assay, Promega GmbH, Walldorf, Germany). Briefly, the cells were seeded into 96-well plates at a density of 5 × 10^4 cells/well 24 h prior to the experiment at 37 °C in a humidified, 5% CO2 atmosphere. On the day of the experiment, the cell culture medium was replaced by fresh medium supplemented with either test compounds (working concentration: 50 µM; prepared by 1:200 dilution from a 10 mM stock solution in 100% DMSO with cell culture medium) or vehicle (0.5% DMSO in cell culture medium), and the cells were incubated for 72 h. Subsequently, 20 µL of the MTS solution was added per well and the plate was incubated in the CO2 incubator for another 2 h. Afterwards, the absorbance was measured at a wavelength of 490 nm using a microplate reader (Model 680 microplate reader, Bio-Rad Laboratories GmbH, Feldkirchen, Germany).
On the technique in general: Tetrazolium dyes change colour on reduction, which living cells bring about.

Series [3] concerns human U251-MG glioblastoma cells. The experiment in a line: MTS assay, cancer cell viability, U251-MG. The conditions noted are these: U-251, 72 h, mean ± SD, n = 3, read-out: Cell Viability [%] (Vehicle = 100%) U251-MG. Format: cell-based. How it is done:
as §2, §3

Sequence of human recombinant HDAC3/NcoR2 (O15379 whole entry): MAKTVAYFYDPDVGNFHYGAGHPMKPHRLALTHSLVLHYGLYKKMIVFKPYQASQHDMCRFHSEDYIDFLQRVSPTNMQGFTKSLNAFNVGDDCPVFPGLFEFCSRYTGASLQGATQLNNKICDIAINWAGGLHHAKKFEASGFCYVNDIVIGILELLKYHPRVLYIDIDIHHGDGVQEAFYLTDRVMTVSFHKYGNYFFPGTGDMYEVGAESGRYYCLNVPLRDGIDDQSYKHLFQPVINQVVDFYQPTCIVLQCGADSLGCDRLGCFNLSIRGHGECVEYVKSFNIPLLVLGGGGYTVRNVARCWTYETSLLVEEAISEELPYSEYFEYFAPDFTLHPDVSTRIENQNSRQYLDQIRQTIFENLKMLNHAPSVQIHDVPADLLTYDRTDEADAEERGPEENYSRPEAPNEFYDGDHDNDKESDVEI
Sequence of human recombinant HDAC3/NcoR2 (Q9Y618 395-489 partner limits assumed): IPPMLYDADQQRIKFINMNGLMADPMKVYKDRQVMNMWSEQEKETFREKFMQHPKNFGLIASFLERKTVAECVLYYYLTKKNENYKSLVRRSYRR
T3 sequence (Q92769 whole entry): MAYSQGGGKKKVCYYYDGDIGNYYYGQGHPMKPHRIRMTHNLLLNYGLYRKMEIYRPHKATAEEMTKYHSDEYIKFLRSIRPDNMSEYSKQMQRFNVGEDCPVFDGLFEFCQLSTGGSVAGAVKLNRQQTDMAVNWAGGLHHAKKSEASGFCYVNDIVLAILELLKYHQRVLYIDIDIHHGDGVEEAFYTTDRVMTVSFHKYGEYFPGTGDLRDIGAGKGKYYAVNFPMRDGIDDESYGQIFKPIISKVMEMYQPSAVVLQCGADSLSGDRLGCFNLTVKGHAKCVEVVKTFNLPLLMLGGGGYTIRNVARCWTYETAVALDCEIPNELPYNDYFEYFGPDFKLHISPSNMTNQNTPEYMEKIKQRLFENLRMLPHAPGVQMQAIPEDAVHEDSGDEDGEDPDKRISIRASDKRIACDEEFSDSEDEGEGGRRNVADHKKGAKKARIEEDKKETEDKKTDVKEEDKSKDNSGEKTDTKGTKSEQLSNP

In general, IC50 refers to the concentration needed to halve the response being measured. Take `CC(F)C(=O)NCc1ccc(C(=O)Nc2cc(-c3cccs3)ccc2N)cc1` (stereo not drawn) [BA1, N-[2-amino-5-(thiophen-2-yl)phenyl]-4-[(2-fluoropropanamido)methyl]benzamide]: the IC50 in series [1] is 2300 ± 190 nM; at human recombinant HDAC1, 4.8 ± 0.4 nM; on human recombinant HDAC6, > 10000 nM; on human recombinant HDAC2, 64.3 ± 4.5 nM. The “specificity ratio (HDAC1/HDAC3)” value in series [1] was found to be 479.

In the case of `CC(F)C(=O)Nc1ccc(C(=O)Nc2cc(-c3cccs3)ccc2N)cc1` (stereo not drawn) [BA2, N-[2-amino-5-(thiophen-2-yl)phenyl]-4-(2-fluoropropanamido)benzamide], the IC50 in series [1] is > 1110 nM; at human recombinant HDAC1, 8.3 ± 1.4 nM; at human recombinant HDAC6 it was > 10000 nM; on human recombinant HDAC2, 33.5 ± 1.5 nM.

With `CC(F)C(=O)NCc1ccc(C(=O)Nc2cc(-c3ccsc3)ccc2N)cc1` (stereo not drawn) [BA3, N-[2-amino-5-(thiophen-3-yl)phenyl]-4-[(2-fluoropropanamido)methyl]benzamide], the IC50 in series [1] is > 1110 nM; on human recombinant HDAC1, 4.8 ± 0.6 nM; at human recombinant HDAC6 it was > 10000 nM; at human recombinant HDAC2, 39.9 ± 3.2 nM. In series [1], the “specificity ratio (HDAC1/HDAC3)” value is recorded as > 230. On human recombinant HDAC6 (from IC50 values), the “specificity ratio HDAC1 over HDAC6” value is given as > 2080. Besides, the “solubility in cell culture medium” value in series [2] is reported as “slight precipitation”.

For the compound `CC(F)C(=O)Nc1ccc(C(=O)Nc2cc(-c3ccsc3)ccc2N)cc1` (stereo not drawn) [BA4, N-[2-amino-5-(thiophen-3-yl)phenyl]-4-(2-fluoropropanamido)benzamide], the IC50 in series [1] is > 3330 nM; at human recombinant HDAC1 it was 11.2 ± 2.4 nM; on human recombinant HDAC6 it was > 10000 nM; at human recombinant HDAC2, 38.1 ± 4.5 nM.

With `CC(F)C(=O)NCc1ccc(C(=O)Nc2cc(-c3ccc(F)cc3)ccc2N)cc1` (stereo not drawn) [BA5, N-(4-amino-4′-fluoro-[1,1′-biphenyl]-3-yl)-4-[(2-fluoropropanamido)methyl]benzamide], the concentration for half-maximal inhibition (IC50) in series [1] is 1300 ± 70 nM; on human recombinant HDAC1, 10.2 ± 0.4 nM; at human recombinant HDAC6, > 10000 nM; on human recombinant HDAC2, 32.2 ± 5.5 nM.

With `CC(F)C(=O)Nc1ccc(C(=O)Nc2cc(-c3ccc(F)cc3)ccc2N)cc1` (stereo not drawn) [BA6, N-(4-amino-4′-fluoro-[1,1′-biphenyl]-3-yl)-4-(2-fluoropropanamido)benzamide], the IC50 was > 1110 nM in series [1], 14.9 ± 0.4 nM at human recombinant HDAC1, > 10000 nM at human recombinant HDAC6 and 56.6 ± 0.6 nM on human recombinant HDAC2. Also, the “specificity ratio (HDAC1/HDAC3)” value in series [1] is recorded as > 74.

On to `CC(F)C(=O)NCc1ccc(C(=O)Nc2cc(-c3ccco3)ccc2N)cc1` (stereo not drawn) [BA7, N-[2-amino-5-(furan-2-yl)phenyl]-4-[(2-fluoropropanamido)methyl]benzamide], for which the IC50 in series [1] is 3800 ± 180 nM; on human recombinant HDAC1 it was 20.4 ± 0.3 nM; on human recombinant HDAC6 it was > 10000 nM; at human recombinant HDAC2 it was 69.1 ± 1.2 nM.

In the case of `CC(F)C(=O)Nc1ccc(C(=O)Nc2cc(-c3ccco3)ccc2N)cc1` (stereo not drawn) [BA8, N-[2-amino-5-(furan-2-yl)phenyl]-4-(2-fluoropropanamido)benzamide], the IC50 in series [1] is 4200 ± 80 nM; at human recombinant HDAC1, 24.2 ± 2.9 nM; on human recombinant HDAC6 it was > 10000 nM; on human recombinant HDAC2, 82.1 ± 0.1 nM.

In the case of `CC(F)C(=O)NCc1ccc(C(=O)Nc2cc(-c3ccoc3)ccc2N)cc1` (stereo not drawn) [BA9, N-[2-amino-5-(furan-3-yl)phenyl]-4-[(2-fluoropropanamido)methyl]benzamide], the IC50 was 2400 ± 250 nM in series [1], 19.8 ± 0.4 nM on human recombinant HDAC1, > 10000 nM at human recombinant HDAC6 and 56.3 ± 0.2 nM on human recombinant HDAC2.

In the case of `CC(F)C(=O)Nc1ccc(C(=O)Nc2cc(-c3ccoc3)ccc2N)cc1` (stereo not drawn) [BA10, N-[2-amino-5-(furan-3-yl)phenyl]-4-(2-fluoropropanamido)benzamide], the 50% inhibitory concentration (IC50) in series [1] is 3300 ± 480 nM; at human recombinant HDAC1, 17 ± 1.2 nM; at human recombinant HDAC6, > 10000 nM; at human recombinant HDAC2 it was 47.7 ± 2.9 nM.

As a reminder, the viability is a read-out of living cells in per cent, often relative to untreated cells. As for `Nc1ccccc1NC(=O)c1ccc(CNC(=O)OCc2cccnc2)cc1` [entinostat], the viability at 50 µM in the series on rat F98 glioma cells is 27.5 ± 4.4%; in series [3], 55 ± 11.2%.

As for `CC(=O)Nc1ccc(C(=O)Nc2ccccc2N)cc1` [tacedinaline], the viability at 50 µM amounted to 27.1 ± 3% with rat F98 glioma cells and 28.5 ± 3% in series [3].

`O=C(CCCCCCC(=O)Nc1ccccc1)NO` [vorinostat]: the viability at 50 µM in the series with rat F98 glioma cells is 24.4 ± 7.9%; in series [3], 36.9 ± 7.6%.
